In US9359279B2, “Treatment of cancer, inflammatory disease, and autoimmune disease” (AndroScience Corporation, priority 2010, dated 2016):
Where a name gives a salt, the structure may show the parent alone.

Columns and labels:
[1] = system: human Lennert's T cell lymphoma KT-3 cells; assay: Inhibition of IL-6-induced proliferation of KT-3 cells (CellTiter Glo viability); format: cell-based; conditions: read-out: IC50 (the concentration at which a compound suppresses cell growth by 50%), hIL-6 2.5 ng/ml, 48 hours
Description: Inhibitory Effects on Proliferation of Human Lernert's T Cell Lymphoma KT-3
Inhibitory effects of compounds of this invention on the growth of human Lennert's T cell lymphoma KT-3 cells, an IL-6-dependent cell line, were determined as described below. […] To experimental wells, test compounds at various concentrations (in triplicates) were added immediately after the cells were plated. To the control wells, an equal volume of vehicle, DMSO (0.1% v/v), was added. After incubating the cells with the compounds or in vehicle for 48 hours, cell viability was assessed using a CellTiter Glo Luminescent Cell Viability Assay Kit (Promega, Madison, Wis.). The resultant luminescence was quantified using Microplate Luminometer LB96V (EG&G BERTH HOLD) according to the manufacturer's protocol. The cell surviving rate was calculated by dividing the luminescence value of compound-treated cells with that of vehicle-treated cells.

[2] = Inhibition of growth of various human tumor cell lines (MTT); format: cell-based; conditions: Homo sapiens, range over all tumor cell lines tested, 72 h, read-out: IC50 values, growth of all tumor cells tested
Description: (§1) Inhibition of Growth of Various Human Tumor Cell Lines
(§2) The inhibitory effects of Compound 6 were determined as described below on the growth of colon cancer cells (HCT116, HT29, SW480, and SW620), colon adenocarcinoma cells (Colo205), prostate adenocarcinoma cells (PC-3 and Dul145), prostate carcinoma cells (CWR22RV and LNCap), non-small cell lung carcinoma cells (NCI-H1299), lung adnocarcinoma cells (A549), large cell lung carcinoma cells (NCI-H460), breast metastatic carcinoma cells (MDA-MB-453), breast ductal carcinoma cells (T-47D), breast adnocarcinoma cells (MCF7), hepatocellular carcinoma cells (Huh-7 and HepG2), pancreatic carcinoma cells (PANC-1), cervix adnocarcinoma cells (Hela), IL-6-dependent Lennert's T-cell lymphoma cells (KT-3), IL-6-dependent multiple myeloma cells (INA-6), multiple myeloma cells (KMM-1 and U266), myeloid leukemia cells (HL-60), and T-cell leukemia cells (Jurkat). […] The viability of the tumor cells was then assessed using the tetrazolium-based calorimetric assay (MTT) as described in Su et al., J Mol Cell Cardiol. […] The resultant formazan crystals were solubilized with MTT lysis buffer (50% DMF, 24 mM HCl, 2% Acetic Acid, 5% SDS) and the absorbance at 595 nm was measured using a Benchmark microplate reader (BIO-RAD, Hercules, Calif.). […]

[3] = system: various human tumor cell lines (HCT116, HT29, SW480, SW620, Colo205, PC-3, Dul145, CWR22RV, LNCap, NCI-H1299, A549, NCI-H460, MDA-MB-453, T-47D, MCF7, Huh-7 …); assay: as above; format: cell-based; conditions: 0 to 5 μM, 72 h
Description: as §1, §2

[4] = system: MRG (MgcRacGAP); assay: Western blot analysis of MRG protein in KT-3 cells; format: cell-based, human; conditions: KT-3 cells, 1, 5, or 20 μM, 0.5-6 hours
Description: (§3) Western Blot Analysis of MRG, STAT1, STAT3, and STAT5 Proteins in KT-3 Cells
(§4) Western Blot analysis was performed as described in Kawashima et al., J. Immunol. 2001, 167:3652-3660, with minor modifications. Briefly, KT-3 cells were treated with 1, 5, or 20 μM of compound 6 or vehicle alone in the above described IL-6-containing medium. At various time points after incubation (i.e., 0.5, 1, 3, and 6 hours after the treatment), cells were harvested and lysed using a lysis buffer (1.0% Triton X-100, 50 mM Tris-HCl (pH 7.5), 0.1 mM EDTA, 150 mM NaCl, 200 μM Na3VO4, 50 mM NaF, 1 mM dithiothreitol, 0.4 mM phenylmethylsulfonyl fluoride, 3 μg/ml of aprotinin, 2 μg/ml of pepstatin A, 1 μg/ml of leupeptin) at 2×10^7 cells/ml on ice for 30 min. Cell lysates were harvested by centrifugation at 12,000×g for 15 min. The samples (1×10^5 cell equivalent/lane) were subjected to sodium dodecyl sulfate-polyacrylamide gel electrophoresis and subsequently transferred onto Immobilon filters (Millipore). After blocked with 5% BSA, the filter was probed with anti-pSTAT3, STAT3, STAT5, STAT1, MRG or Actin Abs. The rabbit polyclonal anti-STAT3, anti-STAT5, anti-STAT1, and anti-Actin antibodies (Abs), and mouse monoclonal anti-pSTAT3 Ab (B-7) were obtained from Santa Cruz Biotechnology. Affinity purified anti-MRG Ab was prepared as described previously in Hirose et al., J. Biol. Chem. 276:5821-5828. […]

[5] = system: STAT3; assay: Western blot analysis of STAT3 protein in KT-3 cells; format: cell-based, human; conditions: KT-3 cells, 1, 5, or 20 μM, 0.5-6 hours
Description: as §3, §4

[6] = system: STAT5; assay: Western blot analysis of STAT5 protein in KT-3 cells; format: cell-based, human; conditions: KT-3 cells, 1, 5, or 20 μM, 0.5-6 hours
Description: as §3, §4

[7] = system: pSTAT3; assay: Western blot analysis of STAT3 phosphorylation (pSTAT3) in KT-3 cells; format: cell-based, human; conditions: KT-3 cells, 1, 5, or 20 μM, 0.5-6 hours
Description: as §3, §4

[8] = system: STAT1; assay: Western blot analysis of STAT1 protein in KT-3 cells; format: cell-based, human; conditions: KT-3 cells, 1, 5, or 20 μM, 0.5-6 hours
Description: as §3, §4

[9] = system: HCT-116 cells; assay: Human colon cancer (HCT-116) mouse xenograft model; format: in vivo; conditions: athymic nude mice, HCT-116 xenograft, 40 mg/kg i.p. daily, days 0-4 and 7-10
Description: Inhibitory Effect on Human Colon Cancer (HCT-116) in a Mouse Xenograft Model
The in vivo experiments were carried out under an Institutional Animal Care and Use Committee-approved protocol and followed Institutional guidelines for proper and humane use of animals in research. Six-week-old female athymic nude mice were purchased from the Harlan Laboratory. Each of eight mice was injected subcutaneously with 1×10^6 HCT-116 cells mixed with Matrigel (BD Bioscience) at the left flank. After injection, tumors were allowed to grow for 5 days into a palpable size (volume ˜100 mm^3) before treatment. Mice were randomized into two groups (n=4 per group). The control group was injected with a vehicle solution only (i.e., 10% DMSO and 90% corn oil), while the experimental group received a daily injection (i.p.) of compound 6 (at a dose of 40 mg/kg body weight, dissolved in the vehicle solution) from days 0 (the initiation day of injection) to 4 and from days 7 to 10. The sizes of tumors were measured twice a week using a Vernier caliper and calculated using the following formula: length×width×height×0.5236, as described in Rockwell et al., J Natl. Cancer Inst. 1972; 49:735-747.

With `CCN(CC)CCOc1cccc(/C=C/C(=O)/C=C/c2cccc(O)c2)c1` (as salt: succinic acid salt) [Compound 47] the melting point was 104 to 106 °C.
For `CCS(=O)(=O)Oc1cccc(/C=C/C(=O)/C=C/c2cccc(OS(=O)(=O)CC)c2)c1` [Compound 6], the IC50 [1] was no more than 50 nM, the IC50 [2] was 20 to 5500 nM and the “inhibitory effects on the growth of all tumor cells tested” value [3] was “dose-dependent inhibitory effects”. For the same compound, the MRG protein level [4] was “down-regulated”, the STAT3 protein level [5] was “down-regulated” and the STAT5 protein level [6] was “down-regulated”. The “phosphorylation of STAT3 protein” value [7] was “inhibited phosphorylation”, the “expression of STAT1” value [8] was “no effect” and the “human colon cancer growth (tumor size)” value [9] was “inhibited human colon cancer growth”.
With `O=C1/C(=C/c2cccc(O)c2)CN(C(=O)C2CC2)C/C1=C\c1cccc(O)c1` [Compound 16] the IC50 [1] was no more than 50 nM.
`CCP(=O)(CC)Oc1cccc(/C=C/C(=O)/C=C/c2cccc(OP(=O)(CC)CC)c2)c1` [Compound 18] gave an IC50 [1] of no more than 50 nM.
`CCN(CC)CCOc1cccc(/C=C/C(=O)/C=C/c2cccc(O)c2)c1` [Compound 19] gave an IC50 [1] of no more than 50 nM.
Compound `CCS(=O)(=O)Oc1cccc(/C=C/C(=O)/C=C/c2cccc(OS(=O)(=O)CC)c2OS(=O)(=O)CC)c1` [Compound 26] has an IC50 [1] of no more than 50 nM.
`CCS(=O)(=O)Oc1cccc(/C=C/C(=O)/C=C/c2cc(OS(=O)(=O)CC)cc(OS(=O)(=O)CC)c2)c1` [Compound 27] showed an IC50 [1] of no more than 50 nM.
With `CCN(CC)CCOc1cccc(/C=C/C(=O)/C=C/c2cccc(O)c2O)c1` [Compound 35] the IC50 [1] was no more than 50 nM.
Work on `CCN(CC)CCOc1cccc(/C=C/C(=O)/C=C/c2cccc(OCCN(CC)CC)c2O)c1` [Compound 36] yielded an IC50 [1] of no more than 50 nM.
Work on `COc1ccc(/C=C/C(=O)/C=C/c2cccc(O)c2)cc1OC` [Compound 38] yielded a melting point of 159 to 160 °C.
`COc1ccc(/C=C/C(=O)/C=C/c2cccc(O)c2)cc1` [Compound 39] showed a melting point of 152 to 153 °C.
Work on `O=C(/C=C/c1cccc(O)c1)/C=C/c1cccc(C(F)(F)F)c1` [Compound 41] yielded a melting point of 138 to 139 °C.
Compound `O=C(/C=C/c1cccc(O)c1)/C=C/c1ccccc1F` [Compound 42] has a melting point of 159 to 160 °C.
With `CCS(=O)(=O)Oc1cccc(/C=C/C(=O)/C=C/c2ccc(OS(=O)(=O)CC)c(OS(=O)(=O)CC)c2)c1` [Compound 43] the melting point was 102 to 103 °C.
For `CCN(CC)CCOc1cccc(/C=C2\CN(C(=O)C3CC3)C/C(=C\c3cccc(O)c3)C2=O)c1` [Compound 45], the IC50 [1] was no more than 50 nM.
`CCN(CC)CCOc1cccc(/C=C2\CN(C(=O)C3CC3)C/C(=C\c3cccc(OCCN(CC)CC)c3)C2=O)c1` [Compound 46] showed an IC50 [1] of no more than 50 nM.
Compound `O=C(/C=C/c1cccc(O)c1)/C=C/c1cccc(OCCCN2CCCCC2)c1` [Compound 56] has an IC50 [1] of no more than 50 nM.
`O=C(/C=C/c1cccc(O)c1)/C=C/c1cccc(OCCN2CCCCC2)c1` [Compound 57] showed an IC50 [1] of no more than 50 nM.
